The results in this text go back to PMC6707142, “Orthogonal monoterpenoid biosynthesis in yeast constructed on an isomeric substrate” (Nature Communications, 2019).

One test concerns T1, SeCamS.
T1 construct: 6xHis-tagged, E. coli BL21(DE3), Ni-NTA purified
Kind of test: GC-MS of hexane-extracted monoterpene products. Format: biochemical, Solanum elaeagnifolium. The conditions noted are these: 20 mM MOPS pH 7.0, 20 mM MgCl2, 0.02 mM MnCl2, 30 °C, 1 h; read-out: KM^app. An excerpt:
GC-MS of hexane-extracted monoterpene products on SeCamS

The target of the next test is T2, PtPinS (Pinus taeda, UniProt Q84KL3).
T2 construct: gene PT30; lacking the transit peptide, 6xHis-tagged, E. coli BL21(DE3), Ni-NTA purified
T2 sequence (Q84KL3 49-628): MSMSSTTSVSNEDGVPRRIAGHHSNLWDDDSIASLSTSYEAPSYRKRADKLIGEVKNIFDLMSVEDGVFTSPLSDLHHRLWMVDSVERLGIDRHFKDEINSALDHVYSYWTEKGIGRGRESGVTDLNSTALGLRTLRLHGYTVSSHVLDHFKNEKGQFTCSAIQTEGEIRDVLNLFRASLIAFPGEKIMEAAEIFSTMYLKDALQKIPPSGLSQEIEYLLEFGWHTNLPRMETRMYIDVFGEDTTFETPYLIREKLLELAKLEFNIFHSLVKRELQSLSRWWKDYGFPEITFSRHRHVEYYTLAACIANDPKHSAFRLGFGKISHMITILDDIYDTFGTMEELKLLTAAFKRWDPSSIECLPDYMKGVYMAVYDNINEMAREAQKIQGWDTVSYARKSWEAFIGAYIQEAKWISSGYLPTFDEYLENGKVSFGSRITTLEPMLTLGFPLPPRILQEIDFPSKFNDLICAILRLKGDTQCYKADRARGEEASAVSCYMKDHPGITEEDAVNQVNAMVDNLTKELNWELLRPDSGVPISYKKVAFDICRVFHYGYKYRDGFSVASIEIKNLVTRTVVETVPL
The test can be described thus: GC-MS product analysis in vitro. Format: biochemical. Conditions: 20 mM MOPS pH 7.0, 20 mM MgCl2, 0.02 mM MnCl2, 30 °C, 1 h.

Another test deals with T3, SpSabS (Salvia pomifera, UniProt A6XH06).
T3 construct: gene SabS1; 6xHis-tagged, E. coli BL21(DE3), Ni-NTA purified
T3 sequence (A6XH06 29-581): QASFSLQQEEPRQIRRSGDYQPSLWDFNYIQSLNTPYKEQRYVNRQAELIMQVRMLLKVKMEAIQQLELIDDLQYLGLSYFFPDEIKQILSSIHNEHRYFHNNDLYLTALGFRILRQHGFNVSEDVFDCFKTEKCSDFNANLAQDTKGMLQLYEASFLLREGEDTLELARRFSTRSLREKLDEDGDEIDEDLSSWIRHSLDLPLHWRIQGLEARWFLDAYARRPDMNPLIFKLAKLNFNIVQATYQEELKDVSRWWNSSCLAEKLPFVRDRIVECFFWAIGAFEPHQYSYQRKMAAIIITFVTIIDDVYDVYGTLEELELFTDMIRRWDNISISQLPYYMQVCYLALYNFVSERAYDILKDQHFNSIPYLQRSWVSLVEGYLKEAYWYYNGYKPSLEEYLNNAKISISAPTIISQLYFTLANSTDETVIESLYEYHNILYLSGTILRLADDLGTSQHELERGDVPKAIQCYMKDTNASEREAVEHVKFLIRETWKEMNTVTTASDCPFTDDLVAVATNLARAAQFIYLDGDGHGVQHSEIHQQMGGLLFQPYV
Kind of test: GC-MS product analysis in vitro. In kind it is biochemical. Conditions: 20 mM MOPS pH 7.0, 20 mM MgCl2, 0.02 mM MnCl2, 30 °C, 1 h.

Turning to `CC(C)=CCC/C(C)=C/COP(=O)(O)OP(=O)(O)O` [GPP], the Km with SeCamS came to 18.6 ± 2.77 µM.

For the compound `CC(C)=CCC/C(C)=C\COP(=O)(O)OP(=O)(O)O` [NPP], the “GC-MS product analysis in vitro” value on PtPinS and at SpSabS was “able to utilize NPP in in vitro assays with bacterially expressed enzymes” in each case. Moreover, the Km in the test on SeCamS was found to be 107 ± 12.5 µM.

The term Km denotes the concentration of substrate that gives half-maximal velocity.
